One compound from paper PMC12723470, “Heteromultivalent Nanogels as Highly Potent Inhibitors of Pseudomonas Aeruginosa” (Angewandte Chemie (International Ed. in English), 2025) can be followed below.

The subject of the assay is 72 h mature P. aeruginosa biofilm. Nature of the assay: Mature biofilm eradication assay. The following applies: 24 h treatment. It is filed as cell-based, Pseudomonas aeruginosa. How it is done:
Inspired by the results of planktonic bactericidal experiments, we further evaluated the anti‐biofilm activity of the nanogels. […] This observation further reinforces our hypothesis that heteromultivalent nanogels with glyco‐residues and the BMAP‐18 peptide contribute to the long‐term eradication of P. aeruginosa. Further, a mature biofilm eradication assay was performed. […] More than 99.9% biofilm‐coated P. aeruginosa were inactivated (Figure 4a and S10). […] Overall, biofilm inhibition experiments with different control NG, NG‐Fuc/Gal and PNG‐Fuc/Gal reveal that PNG‐Fuc/‐Gal decomposes biofilm by a binding and killing mechanism. First, they bind with bacteria surface lectins via their specific sugar ligands and then inactivate using their surface BMAPs leading to a strong reduction in the biofilm matrix.
Figure 4 a) P. aeruginosa biofilm matrix visualization after 72 h of treatment with samples (red: biofilm matrix, scale bar = 20 µm), b) Biofilm coated‐ P. aeruginosa viability after 12 h treatment of samples. c) Mature P. aeruginosa biofilm visualization after 12 h of treatment with samples, and statistics for thickness and roughness (mean ± SD, n = 7), d) Mature P. aeruginosa biofilm visualization after 24 h of treatment with samples, and statistics for thickness and roughness (mean ± SD, n = 7). 0.01 <*p< […], 0.001 <**p < 0.01, ***p < 0.001, compared with Control group.

Turning to `NC[C@H]1O[C@H](O[C@H]2[C@H](O)[C@@H](O[C@H]3O[C@H](CO)[C@@H](O)[C@H](N)[C@H]3O)[C@H](N)C[C@@H]2N)[C@H](N)C[C@@H]1O` [tobramycin], the “change of mature biofilm when treatment extended from 12 h to 24 h” value is “did not show significant changes”.
